Laboratory results from ChEMBL document CHEMBL1201862, “PubChem BioAssay data set” (2004).
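96-well plates; 48 h exposure; 5 concentrations. Endpoints by linear interpolation between flanking doses. Not reached: highest tested concentration assigned. The concentration for 50% growth inhibition is given as GI50.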 Active and inactive are the calls of the source. Cut-off read from the data, not from the text of the source: active = GI50 up to about 1.1 µM and inactive = higher.

What was measured:
Experiment in all cases: NCI tumour cell line growth inhibition, 48 h
A498 = test system: A498
CAKI-1 = test system: CAKI-1
HCT-116 = test system: HCT-116
HCT-15 = test system: HCT-15
HL-60 = test system: HL-60
HOP-92 = test system: HOP-92
KM-20L2 = test system: KM-20L2
MOLT-4 = test system: MOLT-4
Malme-3M = test system: Malme-3M
OVCAR-8 = test system: OVCAR-8
SF-268 = test system: SF-268
SK-OV-3 = test system: SK-OV-3
SNB-19 = test system: SNB-19
SNB-75 = test system: SNB-75
UACC-257 = test system: UACC-257
UO-31 = test system: UO-31
MCF7 = test system: MCF7
MDA-MB-231 = test system: MDA-MB-231
MDA-MB-435 = test system: MDA-MB-435

SMILES	GI50 (A498)	GI50 (CAKI-1)	GI50 (HCT-116)	GI50 (HCT-15)	GI50 (HL-60)	GI50 (HOP-92)	GI50 (KM-20L2)	GI50 (MOLT-4)	GI50 (Malme-3M)	GI50 (OVCAR-8)	GI50 (SF-268)	GI50 (SK-OV-3)	GI50 (SNB-19)	GI50 (SNB-75)	GI50 (UACC-257)	GI50 (UO-31)	GI50 (MCF7)	GI50 (MDA-MB-231)	GI50 (MDA-MB-435)
O=[N+]([O-])c1cccnc1S(=O)(=O)c1ccccc1	22.1 µM (inactive)	2.9 µM (inactive)	6.93 µM (inactive)	7.55 µM	2.49 µM (inactive)	1.97 µM (inactive)	12.8 µM (inactive)	2.84 µM (inactive)	11.1 µM (inactive)	13.8 µM (inactive)	10.5 µM (inactive)	20.5 µM (inactive)	19.8 µM (inactive)	19.9 µM (inactive)	17.4 µM (inactive)	6.52 µM (inactive)			
CC(C)/C=C1\CCC(CN(C)C)C1=O (stereo unspecified)	6.87 µM (inactive)	1.32 µM (inactive)	0.871 µM (active)	2.13 µM	1.09 µM (active)	1.31 µM (inactive)	9.75 µM (inactive)	1.07 µM (active)	1.04 µM (active)	2 µM (inactive)	8.85 µM (inactive)	18.3 µM (inactive)	9.66 µM (inactive)	3.48 µM (inactive)	4.63 µM (inactive)	8.79 µM (inactive)	0.313 µM (active)	1.42 µM (inactive)	1.6 µM (inactive)
CC(C)(C)c1ccc2c(c1)C(O)(c1ccccc1)c1cc(C(C)(C)C)ccc1C2(O)C(F)(F)F (stereo unspecified)	1.83 µM (inactive)	1.74 µM (inactive)	1.87 µM (inactive)	1.39 µM	2.29 µM (inactive)	1.97 µM (inactive)	1.59 µM (inactive)	1.77 µM (inactive)	2.51 µM (inactive)	2.12 µM (inactive)	2.27 µM (inactive)	3.24 µM (inactive)	2.27 µM (inactive)	2.13 µM (inactive)	2.33 µM (inactive)	2.11 µM (inactive)			
O=C(CC1=Nc2nnc(CCCCCCCc3nnc4n3C(=O)C(CC(=O)c3ccccc3)=N4)n2C1=O)c1ccccc1	> 100 µM (inactive)	> 100 µM (inactive)	> 100 µM (inactive)	> 100 µM	> 100 µM (inactive)	> 100 µM (inactive)	> 100 µM (inactive)	> 100 µM (inactive)	> 100 µM (inactive)	> 100 µM (inactive)	> 100 µM (inactive)	> 100 µM (inactive)	> 100 µM (inactive)	> 100 µM (inactive)	> 100 µM (inactive)	> 100 µM (inactive)			
O=S(=O)(C1=CC(S(=O)(=O)c2ccccc2)CN(Cc2ccccc2)C1c1cccc2ccccc12)c1ccccc1 (stereo unspecified)	> 69 µM (inactive)	20.7 µM (inactive)	> 69 µM (inactive)	> 69 µM	> 69 µM (inactive)	6.3 µM (inactive)	> 69 µM (inactive)	> 69 µM (inactive)	> 69 µM (inactive)	> 69 µM (inactive)	> 69 µM (inactive)	> 69 µM (inactive)	> 69 µM (inactive)	> 69 µM (inactive)	> 69 µM (inactive)	> 69 µM (inactive)			
C[n+]1c2ccccc2cc2c(CNC(CCCNC(=N)N)C(=O)O)cccc21 (stereo unspecified)	3.51 µM (inactive)	0.518 µM (active)	0.301 µM (active)	0.394 µM	0.149 µM (active)	1.3 µM (inactive)	0.641 µM (active)	0.208 µM (active)	2.05 µM (inactive)	1.8 µM (inactive)	0.244 µM (active)	1.99 µM (inactive)	2.37 µM (inactive)	5.62 µM (inactive)	0.638 µM (active)	0.959 µM (active)			
CSc1nc(O)c2cn(Cc3ccccc3)nc2n1	> 100 µM (inactive)	41 µM (inactive)	> 100 µM (inactive)	> 75.3 µM	> 100 µM (inactive)	71.6 µM (inactive)	> 67.5 µM (inactive)	> 100 µM (inactive)	> 100 µM (inactive)	> 100 µM (inactive)	> 100 µM (inactive)	> 100 µM (inactive)	> 100 µM (inactive)	> 86.1 µM (inactive)	> 100 µM (inactive)	> 87.3 µM (inactive)			
COC(=O)C(C(=O)C(=O)Nc1ccccc1OC)c1csc(-n2nc(-c3ccccc3)cc2-c2ccccc2)n1 (stereo unspecified)	> 100 µM (inactive)	> 100 µM (inactive)	> 100 µM (inactive)	> 100 µM	> 100 µM (inactive)	> 100 µM (inactive)	> 100 µM (inactive)	65.2 µM (inactive)	> 100 µM (inactive)	> 100 µM (inactive)	> 100 µM (inactive)	> 100 µM (inactive)	> 100 µM (inactive)	8.97 µM (inactive)	> 100 µM (inactive)	54.7 µM (inactive)			
